# Measured values as given in patent US10111847B2, “Compounds and methods for modulating vascular injury” (The Regents of the University of California, priority 2012, dated 2018).
# Experiments:
# IKKα/β subunit = assay: TNFα induced phosphorylation of IKKα/β in sv-ECs, western blot; type: cell-based, human; conditions: 100 nm, 30 min; TNFα 1 ng/ml 15 min
# Procedure: (§1) Mar-1. VSMCs and ECs were lysed in buffer (20 mM Tris-Hcl, 137 mM NaCl, 10% Glycerol, 1% NP-40) with protease and phosphatase inhibitors (Halt inhibitor capsules, Pierce, Inc) by sonication on ice. The lysates were instantly snap frozen in liquid nitrogen and thawed back later for western blotting. After centrifugation (15,000 g for 20 minutes), the whole cell extract (supernatant) was collected and was heated at 100° C. in Laemlli buffer for 6 minutes. Lysates were run on Mini-Protean TGX gels
# (§2) (Biorad) and transferred on PVDF membranes which were probed with appropriate primary and secondary antibodies and visualized for quantitation using q-dot nanocrystals (Life Technologies, Inc).
# Cells were pretreated with 100 nm of 7S/7R-Maresin-1 for 30 min, followed by TNFα (10 ng/ml for VSMC and 1 ng/ml for EC) for 15 min. Whole cell lysates were collected and probed for pan and phospho IKK (Cell Signaling Inc.).
# FIG. 18. IKK-phospho and total IKK western blotting image is representative of three independent experiments. Bar graph represents net quantitative densitometry analysis. N=3. P≤0.05, One-way ANOVA with Dunnett's post hoc test. *: P≤0.05 compared to control, unpaired t-test. †: P≤0.05 compared to TNFα, unpaired t-test. Error bars: SEM.
# NOX4 = assay: TNFα induced NADPH-oxidase 4 expression, western blot; type: cell-based, human; conditions: 30 min pretreatment, TNFα 10 ng/ml 4 hr; sv-VSMCs
# Procedure: as §1, §2
# NADPH oxidases (NOX) are the dominant source of superoxide generation in blood vessels and have been strongly implicated in vascular injury. NOX4 is a dominant isoform bound in VSMC and blood vessels. Regulation of NOX4 expression and activity therefore is of interest. Human sv-VSMCs were pretreated with 7S-Maresin-1 or vehicle for 30 min, followed by TNFα at 10 ng/ml for 4 hr. Whole cell lysates were blotted for NOX4 (Abcam Inc.) and beta-actin (Sigma).
# FIG. 14. NOX4 and beta-actin western blotting image is representative of three independent experiments. Bar graph represents net quantitative densitometry analysis. N=3. […]
# human sv-VSMCs = assay: PDGF-BB induced VSMC cell-shape measurement (phalloidin); type: cell-based; conditions: 100 nM, 30 min; PDGF-BB 50 ng/ml 1 hr
# Procedure: Cells were cultured in 8-well chamber slides (3,000 cells/well) and pretreated with MaR-1 or vehicle (0.1% ethanol) for 30 min followed by the addition of PDGF-BB (50 ng/ml) for 1 h. Cells were washed twice in phosphate-buffered saline (PBS), permeabilized with 0.1% Triton-X, and then fixed in 4% formaldehyde, labeled with Alexa Fluor 568 phalloidin (Invitrogen) and DAPI, and then mounted on glass slides. Cell area and length/width ratio were determined by outlining the cell dimensions and computing 2-dimensional area using GIMP image analysis software (GIMP, freeware; www.gimp.org). For each condition, dimensions were measured from 30 randomly selected cells, and all treatment conditions were performed in triplicate.
# Human sv-VSMCs cultured in chamber slides were treated with 7S-Maresin-1 at 100 nM or vehicle for 30 min, followed by PDGF-BB, 50 ng/ml for 1 hr. Cells were then fixed, permeabilized and stained with phalloidin (Life technologies).
# FIGS. 21A-21E. (A) Vehicle Control. (B) PDGF-BB, 50 ng/ml. (C) 7S-Maresin-1, 100 nm+PDGF-BB, 50 ng/ml. (D) 7S-Maresin-1, 100 nm+pertussis toxin, 10 ng/ml+PDGF-BB, 50 ng/ml. (E) Graphical summary of N=4 per group. P≤0.01, One-way ANOVA with Dunnett's post hoc test. *P<0.05 compared to PDGF-BB (50 ng/ml). †: P≤0.05 compared to PDGF-BB alone, unpaired t-test. ‡: P≤0.05 compared to PDGF-BB+7S-Maresin-1, unpaired t-test. Error bars: SEM.
# TNF-α-stimulated VSMC = assay: U937 monocyte adhesion to TNF-α-stimulated VSMC (Maresin-1); type: cell-based, human; conditions: 1-100 nM, 30 min pretreatment; TNFα 10 ng/ml 4 hr
# Procedure: MaR-1. VSMCs and ECs were seeded on a 96 well plate (20000 cells/well for VSMCs and 50000 cells/well for ECs) and after 2 days, were treated with Maresin-1 (1-100 nM) for 30 min followed by TNF-α for 4 hr and then calcein AM-labeled U937 cells were added on top of the VSMCs. After 15-minute incubation at 37 C, unbound cells were washed off with cold PBS. Fluorescence measurements (ex 494 nm, em 517 nm) of bound monocytes were taken with a plate reader. For capturing images, the assay was performed in 8-well chamber slides (Nunc Labtek) and images were taken after cold PBS wash (three times) following U937 incubation.
# (§3) FIGS. 15A-15D. Representative images of Calcein-AM labeled U937 monocytes adhered to human sv-VSMCs pretreated with vehicle (A, B) or 7S-Maresin-1 (C) or 7S-Maresin-1 and pertussis toxin (D) for 30 min, followed by TNFα at 10 ng/ml for 4 hr (B, C, D). (E) Quantitative analysis of U937 adhesion assay in human sv-VSMCs and (F) human sv-ECs (1 ng/ml TNFα used for EC cells). […] Bar graph represents net quantitative densitometry analysis. […] Expression of MCP-1 was measured by qRT-PCR, and normalized to unstimulated cells (n=3, results are mean±SEM, P<0.05 for Mar-1 (10 and 100 nM) vs TNF alone, unpaired t-test).
# VCAM-1 = VCAM-1 expression in TNFα treated VSMC, western blot; type: cell-based, human; conditions: 10 and 100 nM; TNFα 10 ng/ml 4 hr; P=0.20 compared to TNFα
# Procedure: as §1, §2, §3
smiles,measurement,setting,value
"CC/C=C\C/C=C\C[C@H](O)\C=C/C=C/C=C/[C@@H](O)C/C=C\CCC(=O)O [7S-Maresin-1, 7S,14R-dihydroxydocosa-4Z,8E,10Z,12Z,16Z,19Z-hexaenoic acid]",TNFα induced phosphorylation of IKKα/β subunit in human sv-ECs,IKKα/β subunit,Reduce
same,TNFα induced NADPH-oxidase 4 expression,NOX4,Attenuates
same,PDGF-BB induced vascular smooth muscle cell shape change,human sv-VSMCs,Alters
same,monocyte adhesion (U937) to TNF-α-stimulated VSMC,TNF-α-stimulated VSMC,dose-dependent inhibition
same,VCAM-1 expression by Western blot,VCAM-1,inhibition of VCAM-1 expression
